16 molecules from patent US9168259B2 (GRÜNENTHAL GMBH, priority 2010, dated 2015) can be followed below.

One assay concerns rat. As to the kind of experiment: Low-intensity tail flick test (rat). The conditions noted are these: po, peroral. The format is in vivo. How it is done:
Method II. Low-Intensity Tail Flick Test (Rat)
In the low-intensity tail flick test, the determination of the antinociceptive effect of the compounds according to the invention towards an acute noxious thermal stimulus is carried out by measuring the withdrawal reflex of the rat tail (tail flick) in response to a radiant heat beam (analgesia meter; model 2011 of the company Rhema Labortechnik, Hofheim, Germany) according to the method described by D'Amour and Smith (J. Pharm. Exp. Ther. 72, 74 79 (1941). To this end, the rats were placed in a plexiglass restrainer, and a low-intensity radiant heat beam (48° C.) was focused onto the dorsal surface of the tail root. The stimulus intensity was adjusted to result in a mean pre-drug control withdrawal latency of about 7 s, thus also allowing a supraspinal modulation of the spinally mediated acute nociceptive reflex. A cutoff time of 30 s was applied to avoid tissue damage. Male Sprague-Dawley rats (Janvier, Le Genest St. Isle, Frankreich) with weights of 200-250 g were used. 10 rats were used per group. Before administration of a compound according to the invention, the animals were pre-tested twice in the course of five minutes and the mean of these measurements was calculated as the pre-test mean. The antinociceptive effect was determined at 20, 40 and 60 min after peroral compound administration. The antinociceptive effect was calculated based on the increase in the tail withdrawal latency according to the following formula and is expressed as percentage of the maximum possible effect (MPE [%]): MPE=[(T1−T0)/(T2−T0)]*100
In this, T0 is the control latency time before and T1 the latency time after administration of the compound, T2 is the cutoff time and MPE is the maximum possible effect. Employing variant analysis (repeated measures ANOVA) allowed testing of statistically significant differences between the compounds according to the invention and the vehicle group. The significance level was set to p≦0.05. To determine the dose dependency, the particular compound according to the invention was administered in 3-5 logarithmically increasing doses, including a threshold dose and a maximum effective dose, and the ED50 values were determined with the aid of regression analysis. The ED50 calculation was performed at the time of maximum efficacy (usually 20 min after administration of the compounds).
Background: Hot-plate and tail-flick tests time the reaction to a heat stimulus.

A further assay deals with T1, KCNQ2/3 channels (Homo sapiens, UniProt O43525+O43526).
T1 construct: expressed in transfected cells
T1 sequence (O43526 whole entry): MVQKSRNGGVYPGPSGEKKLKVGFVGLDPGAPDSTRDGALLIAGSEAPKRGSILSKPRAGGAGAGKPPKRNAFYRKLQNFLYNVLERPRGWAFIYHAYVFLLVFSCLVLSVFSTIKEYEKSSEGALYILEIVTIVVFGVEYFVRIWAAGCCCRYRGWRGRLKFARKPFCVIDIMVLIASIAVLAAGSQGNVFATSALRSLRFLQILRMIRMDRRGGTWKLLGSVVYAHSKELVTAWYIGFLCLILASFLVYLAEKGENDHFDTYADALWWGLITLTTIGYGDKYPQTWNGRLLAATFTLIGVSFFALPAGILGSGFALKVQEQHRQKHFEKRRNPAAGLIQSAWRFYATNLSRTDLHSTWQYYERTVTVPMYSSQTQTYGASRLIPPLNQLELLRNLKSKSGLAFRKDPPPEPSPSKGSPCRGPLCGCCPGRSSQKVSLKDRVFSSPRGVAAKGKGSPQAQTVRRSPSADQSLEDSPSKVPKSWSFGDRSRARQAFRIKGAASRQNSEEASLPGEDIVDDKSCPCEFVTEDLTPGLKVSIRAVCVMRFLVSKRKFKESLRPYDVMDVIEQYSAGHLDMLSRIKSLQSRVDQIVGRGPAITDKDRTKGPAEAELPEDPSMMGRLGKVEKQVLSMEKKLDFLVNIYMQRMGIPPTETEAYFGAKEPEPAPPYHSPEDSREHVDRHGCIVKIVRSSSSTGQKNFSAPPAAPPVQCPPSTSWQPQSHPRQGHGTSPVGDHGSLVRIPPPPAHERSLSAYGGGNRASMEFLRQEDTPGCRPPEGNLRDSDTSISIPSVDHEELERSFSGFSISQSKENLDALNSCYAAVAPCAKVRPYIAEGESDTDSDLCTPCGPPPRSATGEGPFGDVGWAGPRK
T1 sequence (O43525 whole entry): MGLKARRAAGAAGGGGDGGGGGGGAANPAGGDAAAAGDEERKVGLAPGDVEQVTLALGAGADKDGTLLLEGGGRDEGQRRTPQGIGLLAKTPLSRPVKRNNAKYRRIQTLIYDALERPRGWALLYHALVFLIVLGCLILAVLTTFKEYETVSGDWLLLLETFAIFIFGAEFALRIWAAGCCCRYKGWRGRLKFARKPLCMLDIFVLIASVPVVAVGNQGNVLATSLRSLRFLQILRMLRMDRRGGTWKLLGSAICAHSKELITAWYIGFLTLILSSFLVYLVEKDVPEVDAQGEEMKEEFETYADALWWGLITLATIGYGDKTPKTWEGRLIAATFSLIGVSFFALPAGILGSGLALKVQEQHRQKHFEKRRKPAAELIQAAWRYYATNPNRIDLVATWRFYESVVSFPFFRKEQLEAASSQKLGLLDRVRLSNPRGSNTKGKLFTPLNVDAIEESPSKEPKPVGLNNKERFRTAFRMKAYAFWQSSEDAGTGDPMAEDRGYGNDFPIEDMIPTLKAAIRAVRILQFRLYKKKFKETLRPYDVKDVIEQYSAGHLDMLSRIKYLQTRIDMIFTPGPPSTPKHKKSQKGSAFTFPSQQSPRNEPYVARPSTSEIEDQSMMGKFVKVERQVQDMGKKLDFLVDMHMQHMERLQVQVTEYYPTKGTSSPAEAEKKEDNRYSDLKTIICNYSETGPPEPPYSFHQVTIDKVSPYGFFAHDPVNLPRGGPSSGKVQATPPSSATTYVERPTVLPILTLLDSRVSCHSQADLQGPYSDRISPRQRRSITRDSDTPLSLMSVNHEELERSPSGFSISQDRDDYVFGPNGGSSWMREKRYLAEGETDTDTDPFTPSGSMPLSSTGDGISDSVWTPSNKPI
As to the kind of experiment: Fluorescence assay using a voltage sensitive dye (fluorimetry). Particulars: CHO-K1 cells expressing KCNQ2/3; for Emax: CHO-K1, plateau effect relative to saturated retigabine (50 μM) = 100%, negative values = antagonistic, read-out: Fluorimetry % efficacy (retigabine = 100%); for EC50: IC50 where % efficacy is negative, read-out: Fluorimetry EC50/IC50. In kind it is cell-based.

[1] abbreviates: MPE = % of maximum possible effect.

As a reminder, the inhibition in vivo is the percentage by which the read-out fell short of the control. As usually defined, the ED50 is the dose at which the effect has come halfway, by size or by number of responders. The low end stands for greater potency, the high end for weaker potency.

In the assay on rat (setting [1]), `CSc1nc(N2CCOCC2)cc(C)c1C(=O)NCc1cccc(F)c1` [Example 40, N-[(3-Fluorophenyl)-methyl]-4-methyl-2-methylsulfanyl-6-morpholin-4-yl-pyridine-3-carboxylic acid amide] came in with an inhibition in vivo at 10 mg/kg of 84%. Moreover, at KCNQ2/3 channels, the Emax amounted to 168% and the EC50 was 587 nM.
With `CCSc1nc(N2CCOCC2)cc(C)c1C(=O)NCc1cccc(F)c1` [Example 2, 2-ethylsulfanyl-N-[(3-fluorophenyl)-methyl]-4-methyl-6-morpholin-4-yl-pyridine-3-carboxylic acid amide], the ED50 in the assay on rat (ED50 at time of maximum efficacy) stood at 4.3 mg/kg. For the same molecule, on KCNQ2/3 channels, the Emax was 171% and the EC50 worked out at 134 nM.
In the assay with rat (setting [1]), `CCOc1nc(N2CCOCC2)cc(C)c1C(=O)NCc1cccc(F)c1` [Example 38, 2-Ethoxy-N-[(3-fluorophenyl)-methyl]-4-methyl-6-morpholin-4-yl-pyridine-3-carboxylic acid amide] showed an inhibition in vivo at 10 mg/kg of 61%. For the same molecule, at KCNQ2/3 channels, the Emax stood at 144% and the EC50 stood at 219 nM.
`CCSc1nc(N2CCOCC2)cc(C)c1C(=O)NCCCC(C)(C)C` [Example 67, N-(4,4-Dimethyl-pentyl)-2-ethylsulfanyl-4-methyl-6-morpholin-4-yl-pyridine-3-carboxylic acid amide] showed an inhibition in vivo at 10 mg/kg with rat (setting [1]) of 100%. Besides, on KCNQ2/3 channels, the Emax was 244% and the EC50 worked out at 42 nM.
Regarding `CCCc1nc(N2CCOCC2)cc(C)c1C(=O)NCc1cccc(F)c1` [Example 10, N-[(3-Fluorophenyl)-methyl]-4-methyl-6-morpholin-4-yl-2-propyl-pyridine-3-carboxylic acid amide], in the assay with rat (setting [1]), the inhibition in vivo at 10 mg/kg was 81%. In addition, on KCNQ2/3 channels, the Emax was 176% and the EC50 was 181 nM.
As for `CCSc1nc(N2CCOCC2)cc(C)c1C(=O)NCc1cc(F)cc(F)c1` [Example 1, N-[(3,5-Difluoro-phenyl)-methyl]-2-ethylsulfanyl-4-methyl-6-morpholin-4-yl-pyridine-3-carboxylic acid amide], the inhibition in vivo at 4.64 mg/kg in the assay with rat (dose 4.64 mg/kg, MPE = % of maximum possible effect) was 78%. At KCNQ2/3 channels, the Emax stood at 160% and the EC50 came to 56 nM.
Turning to `CCSc1nc(N2CCOCC2)cc(C)c1C(=O)NCCCC(C)C` [Example 79, 2-Ethylsulfanyl-4-methyl-N-(4-methyl-pentyl)-6-morpholin-4-yl-pyridine-3-carboxylic acid amide], the inhibition in vivo at 10 mg/kg in the assay with rat (setting [1]) was 46%. Further, on KCNQ2/3 channels, the Emax was determined as 215% and the EC50 was determined as 206 nM.
Turning to `CCSc1nc(N2CCOCC2)cc(C)c1C(=O)NCc1ccc(F)c(F)c1` [Example 41, N-[(3,4-Difluoro-phenyl)-methyl]-2-ethylsulfanyl-4-methyl-6-morpholin-4-yl-pyridine-3-carboxylic acid amide], the inhibition in vivo at 6.81 mg/kg with rat (dose 6.81 mg/kg, MPE = % of maximum possible effect) came to 92%. In addition, on KCNQ2/3 channels, the Emax worked out at 169% and the EC50 is 69 nM.
`CCSc1nc(N2CCOCC2)cc(C)c1C(=O)NCc1ccc(F)cc1` [Example 4, 2-Ethylsulfanyl-N-[(4-fluorophenyl)-methyl]-4-methyl-6-morpholin-4-yl-pyridine-3-carboxylic acid amide] had an inhibition in vivo at 10 mg/kg with rat (setting [1]) of 94%. Besides, on KCNQ2/3 channels, the Emax came out at 158% and the EC50 amounted to 124 nM.
The like results for `COc1nc(N2CCOCC2)cc(C)c1C(=O)NCc1cccc(F)c1` [Example 19, N-[(3-Fluorophenyl)-methyl]-2-methoxy-4-methyl-6-morpholin-4-yl-pyridine-3-carboxylic acid amide] were, in that order, 79%, 155% and 736 nM.
As for `CCSc1nc(N2CCOCC2)cc(C)c1C(=O)NCCCc1ccccn1` [Example 109, 2-Ethylsulfanyl-4-methyl-6-morpholin-4-yl-N-(3-pyridin-2-yl-propyl)-pyridine-3-carboxylic acid amide], on KCNQ2/3 channels, the Emax amounted to 53%.
With `CSc1nc(N2CCOCC2)cc(C)c1C(=O)NCc1cc(F)cc(F)c1` [Example 156, N-[(3,5-Difluoro-phenyl)-methyl]-4-methyl-2-methylsulfanyl-6-morpholin-4-yl-pyridine-3-carboxylic acid amide], on KCNQ2/3 channels, the Emax was 167% and the EC50 worked out at 157 nM.
`Cc1cc(N2CCOCC2)nc(OCC2CC2)c1C(=O)NCc1ccc(F)cc1` [Example 276, 2-(Cyclopropyl-methoxy)-N-[(4-fluorophenyl)-methyl]-4-methyl-6-morpholin-4-yl-pyridine-3-carboxylic acid amide]: on KCNQ2/3 channels, the Emax was determined as 102% and the EC50 is 143 nM.
As to `CCSc1nc(N2CCOCC2)cc(C)c1C(=O)NCCCC(C)(C)CO` [Example 230, 2-Ethylsulfanyl-N-(5-hydroxy-4,4-dimethyl-pentyl)-4-methyl-6-morpholin-4-yl-pyridine-3-carboxylic acid amide], on KCNQ2/3 channels, the Emax stood at 131% and the EC50 came out at 12900 nM.
Regarding `CCSc1nc(N2CCOCC2)cc(C)c1C(=O)NCc1cccc(C(F)(F)F)c1F` [Example 94, 2-Ethylsulfanyl-N-[[2-fluoro-3-(trifluoromethyl)-phenyl]-methyl]-4-methyl-6-morpholin-4-yl-pyridine-3-carboxylic acid amide], on KCNQ2/3 channels, the Emax turned out to be 111% and the EC50 came out at 39 nM.
`CCSc1nc(N2CCOCC2)cc(C)c1C(=O)NCCCC1CC1` [Example 141, N-(3-Cyclopropyl-propyl)-2-ethylsulfanyl-4-methyl-6-morpholin-4-yl-pyridine-3-carboxylic acid amide]: at KCNQ2/3 channels, the Emax stood at 167% and the EC50 was 242 nM.
